Values of other authors, collected in US7517878B2, “Heteroarylaminopyrazole derivatives useful for the treatment of diabetes” (Bayer Pharamceuticals Corporation, priority 2004, dated 2009).

Test system: INS-1 cells
Conditions: INS-1 cells maintained in the presence of beta-mercaptoethanol; Hohmeier, et al., Diabetes 49:424, 2002; read-out: EC50 of insulin secretion in response to glucose

EC50: 6 mM
SMILES: O=C[C@H](O)[C@@H](O)[C@H](O)[C@H](O)CO [glucose]
